Experimental data: the supplement of paper PMC11061612

Columns and labels:
Experiment in all cases: combination Emax (second highest fraction inhibited in the dose matrix, 72 h); higher = more inhibition; extreme values may be limits of the assay
[1] = tested on: KYSE-140 (Esophageal Squamous Cell Carcinoma)
Summary of the method: (§1)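 Bliss excess equals the observed combination effect minus the expected value EA + EB − EA·EB, where EA and EB are the effects of each agent alone. Combination Emax is the second-highest inhibition within the matrix. Inhibition was scaled from CellTiter-Glo 2.0 luminescence, with 0 set by vehicle wells and 1 by blank wells, after 72 hours of two-drug dosing of cells plated in 1536-well plates.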

[2] = tested on: CGTH-W-1 (Thyroid Gland Carcinoma)
Summary of the method: as §1

[3] = tested on: A2780 (Ovarian Carcinoma)
Summary of the method: as §1

[4] = tested on: JHU-022 (Oral Cavity Carcinoma)
Summary of the method: as §1

[5] = tested on: JVM-2 (B-Cell Non-Hodgkin's Lymphoma)
Summary of the method: as §1

[6] = tested on: NCI-H2087 (Lung Adenocarcinoma)
Summary of the method: as §1

[7] = tested on: LU-165 (Small Cell Lung Carcinoma)
Summary of the method: as §1

[8] = tested on: LS-411N (Colorectal Carcinoma)
Summary of the method: as §1

[9] = tested on: HCC1395 (Breast Carcinoma)
Summary of the method: as §1

[10] = tested on: GA-10 (Burkitt's Lymphoma)
Summary of the method: as §1

EB2 (Burkitt's Lymphoma) = tested on: EB2 (Burkitt's Lymphoma)
Summary of the method: as §1

HCC70 (Breast Carcinoma) = tested on: HCC70 (Breast Carcinoma)
Summary of the method: as §1

[11] = tested on: KYSE-220 (Esophageal Squamous Cell Carcinoma)
Summary of the method: as §1

WM1552C (Melanoma) = tested on: WM1552C (Melanoma)
Summary of the method: as §1

[12] = tested on: CAL-27 (Oral Cavity Carcinoma)
Summary of the method: as §1

769-P (Kidney Carcinoma) = tested on: 769-P (Kidney Carcinoma)
Summary of the method: as §1

[13] = tested on: GCT (Other Solid Carcinomas)
Summary of the method: as §1

[14] = tested on: NCI-H716 (Colorectal Carcinoma)
Summary of the method: as §1

[15] = tested on: UACC-812 (Breast Carcinoma)
Summary of the method: as §1

[16] = tested on: DU-4475 (Breast Carcinoma)
Summary of the method: as §1

Structure (SMILES) | combination Emax [1] | combination Emax [2] | combination Emax [3] | combination Emax [4] | combination Emax [5] | combination Emax [6] | combination Emax [7] | combination Emax [8] | combination Emax [9] | combination Emax [10] | combination Emax (EB2 (Burkitt's Lymphoma)) | combination Emax (HCC70 (Breast Carcinoma)) | combination Emax [11] | combination Emax (WM1552C (Melanoma)) | combination Emax [12] | combination Emax (769-P (Kidney Carcinoma)) | combination Emax [13] | combination Emax [14] | combination Emax [15] | combination Emax [16]
CC1(C)CCC(CN2CCN(c3ccc(C(=O)NS(=O)(=O)c4ccc(NCC5CCOCC5)c([N+](=O)[O-])c4)c(Oc4cnc5[nH]ccc5c4)c3)CC2)=C(c2ccc(Cl)cc2)C1 [Venetoclax] + COc1cc(Nc2ncc3c(n2)-c2ccc(Cl)cc2C(c2c(F)cccc2OC)=NC3)ccc1C(=O)O [Alisertib] (first compound max 1 µM, 7x7, partner max 10 µM) | 0.423 | 0.598 | 0.709 | 0.382 | 0.892 | 0.177 | 0.241 | 0.0718 | 0.688 | 0.995 | 0.803 | 0.412 | 0.379 | 0.508 | 0.689 | 0.303 | 0.463 | 0.82 | 0.224 | 0.807
CCN(CCO)CCCOc1ccc2c(Nc3cc(CC(=O)Nc4cccc(F)c4)[nH]n3)ncnc2c1 [AZD2811] + C=CCn1c(=O)c2cnc(Nc3ccc(N4CCN(C)CC4)cc3)nc2n1-c1cccc(C(C)(C)O)n1 [AZD1775] (first compound max 1 µM, partner max 1 µM) | 0.826 | 0.217 | 0.82 | 0.388 | 0.91 | 0.291 | 0.333 | 0.641 | 0.682 | 0.992 | 0.77 | 0.589 | 0.804 | 0.424 | 0.511 | 0.632 | 0.292 | 0.562 | 0.116 | 0.948
CC1(C)CCC(CN2CCN(c3ccc(C(=O)NS(=O)(=O)c4ccc(NCC5CCOCC5)c([N+](=O)[O-])c4)c(Oc4cnc5[nH]ccc5c4)c3)CC2)=C(c2ccc(Cl)cc2)C1 [Venetoclax] + Cn1cnc2c(F)c(Nc3ccc(Br)cc3Cl)c(C(=O)NOCCO)cc21 [Selumetinib] (first compound max 1 µM, 7x7, partner max 3 µM) | 0.233 | 0.124 | 0.377 | 0.42 | 0.392 | 0.378 | 0.142 | 0.526 | 0.693 | 0.207 | 0.755 | 0.591 | 0.31 | 0.488 | 0.466 | 0.292 | 0.289 | 0.366 | 0.0864 | 1
Cn1cnc2c(F)c(Nc3ccc(Br)cc3Cl)c(C(=O)NOCCO)cc21 [Selumetinib] + C=CCn1c(=O)c2cnc(Nc3ccc(N4CCN(C)CC4)cc3)nc2n1-c1cccc(C(C)(C)O)n1 [AZD1775] (first compound max 10 µM, partner max 1 µM) | 0.683 | 0.0375 | 0.799 | 0.529 | 0.906 | 0.559 | 0.261 | 0.794 | 0.425 | 1 | 0.785 | 0.562 | 0.664 | 0.458 | 0.578 | 0.904 | 0.384 | 0.428 | 0.138 | 1
COc1nnc2ccc(N3CCC(c4ccc(OCCN5CCN(C)C(=O)[C@H]5C)cc4)CC3)nn12 [AZD5153] + CC1(C)CCC(CN2CCN(c3ccc(C(=O)NS(=O)(=O)c4ccc(NCC5CCOCC5)c([N+](=O)[O-])c4)c(Oc4cnc5[nH]ccc5c4)c3)CC2)=C(c2ccc(Cl)cc2)C1 [Venetoclax] (first compound max 1 µM, 7x7, partner max 1 µM) | 0.603 | 0.212 | 0.736 | 0.417 | 0.739 | 0.389 | 0.468 | 0.728 | 0.411 | 0.693 | 0.559 | 0.309 | 0.617 | 0.397 | 0.504 | 0.701 | 0.595 | 0.615 | 0.261 | 0.8
CN(C)CCCOc1ccc(-c2ccc3ncc4c(c3c2)n(C2CCOCC2)c(=O)n4C)cn1 [AZD0156] + C[C@@H]1COCCN1C2=NC(=NC(=C2)C3(CC3)[S@](=N)(=O)C)C4=C5C=CNC5=NC=C4 [AZD6738] (first compound max 1 µM, 7x7, partner max 10 µM) | 0.934 | 0.35 | 0.81 | 0.525 | 0.849 | 0.666 | 0.233 | 0.808 | 0.8 | 1 | 0.774 | 0.829 | 0.876 | 0.783 | 0.586 | 0.84 | 0.231 | 0.667 | 0.295 | 0.913
